In patent US10478425B2, “5-phenylazaindole derivative having AMPK-activating activity” (Shionogi & Co., Ltd., priority 2016, dated 2019):

Target: T1, Human AMPK α2β2γ1 (Homo sapiens, UniProt O43741+P54646)
T1 construct: The full length cDNAs of human AMPK β2 (NM_005399.3) and human AMPK α2 (NM_006252.3); The full length cDNAs of human AMPK β2 (NM_005399.3); the full length cDNA of human AMPK γ1 (NM_002733.3) had been inserted into pET28b(+); 6×His (N); made in house; host or cells: Escherichia coli BL21 CodonPlus (DE3)-RIL
T1 sequence (P54646 whole entry): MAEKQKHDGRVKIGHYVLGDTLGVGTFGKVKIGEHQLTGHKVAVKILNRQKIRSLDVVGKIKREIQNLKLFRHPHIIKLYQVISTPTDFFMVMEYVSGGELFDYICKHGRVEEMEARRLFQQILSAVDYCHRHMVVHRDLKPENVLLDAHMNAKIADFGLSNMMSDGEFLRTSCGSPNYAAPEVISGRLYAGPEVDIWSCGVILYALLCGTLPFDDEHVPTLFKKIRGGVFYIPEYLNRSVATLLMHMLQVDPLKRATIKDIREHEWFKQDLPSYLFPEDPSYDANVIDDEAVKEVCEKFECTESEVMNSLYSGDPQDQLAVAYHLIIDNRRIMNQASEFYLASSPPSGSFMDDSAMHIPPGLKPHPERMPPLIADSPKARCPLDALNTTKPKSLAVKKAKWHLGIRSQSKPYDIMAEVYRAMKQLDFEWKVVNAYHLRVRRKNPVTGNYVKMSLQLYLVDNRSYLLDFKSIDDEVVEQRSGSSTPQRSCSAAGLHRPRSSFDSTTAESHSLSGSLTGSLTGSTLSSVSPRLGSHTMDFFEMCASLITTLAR
T1 sequence (O43741 whole entry): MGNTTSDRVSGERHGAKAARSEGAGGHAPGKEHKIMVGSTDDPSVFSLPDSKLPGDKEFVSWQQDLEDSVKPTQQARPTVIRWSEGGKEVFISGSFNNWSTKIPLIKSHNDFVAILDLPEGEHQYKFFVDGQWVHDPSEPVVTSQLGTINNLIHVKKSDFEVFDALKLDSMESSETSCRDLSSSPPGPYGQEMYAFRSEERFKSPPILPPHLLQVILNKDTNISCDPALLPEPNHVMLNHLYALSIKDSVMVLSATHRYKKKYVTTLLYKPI
T1 sequence (P54619 whole entry partner): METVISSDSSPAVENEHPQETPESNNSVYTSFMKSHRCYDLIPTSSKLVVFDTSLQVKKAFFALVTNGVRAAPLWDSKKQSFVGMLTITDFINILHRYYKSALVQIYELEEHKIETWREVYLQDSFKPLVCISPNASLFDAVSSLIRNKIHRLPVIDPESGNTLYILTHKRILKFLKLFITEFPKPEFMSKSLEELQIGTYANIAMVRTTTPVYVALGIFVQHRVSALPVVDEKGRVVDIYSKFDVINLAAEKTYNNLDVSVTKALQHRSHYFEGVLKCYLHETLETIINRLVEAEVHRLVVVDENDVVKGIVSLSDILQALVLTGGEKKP
Experiment: Test Example 2: activation of phosphorylated human AMPK α2β2γ1 (mobility-shift kinase assay, FL-Peptide 7)
Type: biochemical
Details: for EC150: compound concentration showing 150% relative to the control (100%), human AMPK α2β2γ1 phosphorylated with CaMKK2; for Emax: maximum rate of increase in activity within the measurement range, control = 100%, read-out: Emax
Procedure: The full length cDNAs of human AMPK β2 (NM_005399.3) and human AMPK α2 (NM_006252.3) were inserted into the MCS1 and MCS2 of the pETDuet-1 vector to prepare a human AMPK β2 and human AMPK α2 (6×His tag at the 5′ terminus) expressing plasmid. The plasmid was cotransfected with an expression plasmid, in which the full length cDNA of human AMPK γ1 (NM_002733.3) had been inserted into pET28b(+), into BL21 CodonPlus (DE3)-RIL to obtain an expression strain. The expression strain was cultured in TB medium, followed by induction with 0.5 mM IPTG, and cultured at 25° C. for 3 hours and then harvested. After ultrasonication, supernatant was collected and applied to Histrap FF column (GE) and RESOUECE Q column (GE) to prepare 12.5 mg of purified sample containing three types of subunit from 1.8 L of broth.
An expression vector, in which the full length cDNA of human CAMKK β (NM_172226.1) had been inserted into pGEX-6P-3, was transfected into BL21 Star (DE3). The expression strain was cultured in TB medium, followed by induction with 0.5 mM IPTG, and cultured at 25° C. for 3 hours and then harvested. After ultrasonication, supernatant was collected and applied to GSTrap FF column (GE) to prepare 14 mg of GST-fused CAMKK β from 720 ml of broth.
Thus, phosphorylation treatment was carried out as pretreatment.
Human AMPK α2β2γ1 in an amount to give a conversion rate of approximately 10% by reaction for 2 hours, and CaMKK2 in an amount capable of sufficiently imparting activity to AMPK for one hour were mixed in a buffer solution consisting of a 50 mM HEPES-NaOH buffer solution (pH 7.0), 100 mM NaCl, 5 mM magnesium chloride, 0.1% bovine serum albumin, 0.2 mM sodium orthovanadate(V), 1 mM ethylene glycol-bis(2-aminoethyl ether)-N,N,N′,N′-tetraacetic acid (EGTA), 5 mM disodium β-glycerophosphate, 1 mM dithiothreitol and 0.2 mM ATP, and the resulting liquid was left to stand at 25° C. for 1 to 1.5 hours to sufficiently phosphorylate AMPK.
After that, to the enzyme liquid, which had been subjected to phosphorylation treatment, a compound dissolved in DMSO was added so as to have a 1% DMSO concentration. The resulting liquid was left to stand for 10 minutes.
To the liquid, a substrate solution consisting of a 50 mM HEPES-NaOH buffer solution (pH 7.0), 100 mM NaCl, 10 mM magnesium chloride, 0.1% bovine serum albumin, 0.2 mM sodium orthovanadate(V), 1 mM ethylene glycol-bis(2-aminoethyl ether)-N,N,N′,N′-tetraacetic acid (EGTA), 5 mM disodium β-glycerophosphate, 2 mM dithiothreitol, 0.4 mM ATP and 3 μM FL-Peptide 7 (manufactured by Caliper Life Sciences, Inc.) was added in equal amount (10 μl in total). The resulting liquid was allowed to react at 25° C. for 2 hours, then 10 μl of 20 mM EDTA was added thereto to stop the reaction.
To detect phosphorylated fluorescent substrates, the reaction mixture was applied to a measuring device, LabChip EZ Reader II manufactured by Caliper Life Science, Inc., for detecting fluorescence by using differences in mobility due to differences in charge. The setting conditions for the device were pressure, −1.5 PSI; upstream voltage, −2250 V; downstream voltage, −400 V; post sample buffer sip time, 40 seconds; final delay, 120 seconds; and peak order, Product First.
A conversion rate was calculated from the peak heights of the obtained substrate and product. The conversion rate when not containing a compound was used as a control, and a concentration dependent curve was made by plotting the rate of increase in activity to the control at each concentration of a compound.

SMILES	EC150	Emax
O[C@@H]1CO[C@H]2[C@@H]1OC[C@H]2Oc1cc2nc(-c3ccc(-c4ccc(NC5=NCCO5)cc4)cc3)c(F)cc2[nH]1 [Compound I-1-61]	2.3 nM	383%
COCCOC1CCN(c2ccc(-c3nc4cc(O[C@@H]5CO[C@H]6[C@@H]5OC[C@H]6O)[nH]c4cc3F)cc2)C1 (stereo partly drawn) [Compound I-1-62]	21 nM	392%
O[C@@H]1CO[C@H]2[C@@H]1OC[C@H]2Oc1cc2nc(-c3ccc(-c4ccc(OC5CNC5)cc4)cc3)c(F)cc2[nH]1 [Compound I-1-63]	3.2 nM	361%
CN(C)CCOc1ccc(-c2ccc(-c3nc4cc(O[C@@H]5CO[C@H]6[C@@H]5OC[C@H]6O)[nH]c4cc3F)cc2)cc1 [Compound I-1-68]	2.5 nM	360%
CNCCOc1ccc(-c2ccc(-c3nc4cc(O[C@@H]5CO[C@H]6[C@@H]5OC[C@H]6O)[nH]c4cc3F)cc2)cc1 [Compound I-1-69]	1.6 nM	359%
O[C@@H]1CO[C@H]2[C@@H]1OC[C@H]2Oc1cc2nc(-c3ccc(-c4ccc(OC5CNCC5F)cc4)cc3)c(F)cc2[nH]1 (stereo partly drawn) [Compound I-1-71]	4.33 nM	340%
OCCOc1ccc(-c2ccc(-c3nc4cc(O[C@@H]5CO[C@H]6[C@@H]5OC[C@H]6O)[nH]c4cc3F)cc2)cc1 [Compound I-1-72]	3 nM	353%
COC(=O)NC1CC=C(c2ccc(-c3nc4cc(O[C@@H]5CO[C@H](CO)C5)[nH]c4cc3F)cc2)CC1 (stereo partly drawn) [Compound I-2-01]	–	376%
COCCOc1ccc(-c2ccc(-c3nc4cc(O[C@@H]5CO[C@H](CO)C5)[nH]c4cc3F)cc2)cc1 [Compound I-2-02]	–	537%
CNS(C)(=O)=Nc1ccc(-c2ccc(-c3nc4cc(O[C@@H]5CO[C@H]6[C@@H]5OC[C@H]6O)[nH]c4cc3F)cc2)cc1 (stereo partly drawn) [Compound I-2-04]	0.67 nM	638%
O=C(Nc1ccc(-c2ccc(-c3nc4cc(O[C@@H]5CO[C@H]6[C@@H]5OC[C@H]6O)[nH]c4cc3F)cc2)cc1)[C@@H]1C[C@@H]1F [Compound I-2-05]	6.8 nM	632%
COCC(=O)Nc1ccc(-c2ccc(-c3nc4cc(O[C@@H]5CO[C@H]6[C@@H]5OC[C@H]6O)[nH]c4cc3F)cc2)cc1 [Compound I-2-10]	2.9 nM	636%
CN(C)S(=N)(=O)c1ccc(-c2ccc(-c3nc4cc(O[C@@H]5CO[C@H]6[C@@H]5OC[C@H]6O)[nH]c4cc3F)cc2)cc1 (stereo partly drawn) [Compound I-2-11]	2.1 nM	408%
COCCN(C)c1ccc(-c2ccc(-c3nc4cc(O[C@@H]5CO[C@H]6[C@@H]5OC[C@H]6O)[nH]c4cc3F)cc2)cc1 [Compound I-2-12]	6.9 nM	367%
CC(C)(O)/C=C/c1ccc(-c2nc3cc(O[C@@H]4CO[C@H]5[C@@H]4OC[C@H]5O)[nH]c3cc2F)cc1 [Compound I-2-14]	9.9 nM	507%
CC(C)(O)/C=C/c1ccc(-c2ccc(-c3nc4cc(O[C@@H]5CO[C@H]6[C@@H]5OC[C@H]6O)[nH]c4cc3F)cc2)cc1 [Compound I-2-15]	11 nM	505%
OCCSc1ccc(-c2ccc(-c3nc4cc(O[C@@H]5CO[C@H]6[C@@H]5OC[C@H]6O)[nH]c4cc3F)cc2)cc1 [Compound I-2-16]	1.8 nM	623%

SMILES	EC150	Emax
O[C@@H]1CO[C@H]2[C@@H]1OC[C@H]2Oc1cc2nc(-c3ccc([C@@H]4CCCC[C@H]4O)cc3)c(F)cc2[nH]1 [Compound I-2-17]	15 nM	600%
CS(C)(=O)=Nc1ccc(-c2ccc(-c3nc4cc(O[C@@H]5CO[C@H](CO)[C@@H]5O)[nH]c4cc3F)cc2)cc1 [Compound I-2-19]	67 nM	192%
O[C@@H]1CO[C@H]2[C@@H]1OC[C@H]2Oc1cc2nc(-c3ccc(-c4ccc(N5CCOCC5)cc4)cc3)c(F)cc2[nH]1 [Compound I-2-20]	2.3 nM	375%
Clc1cc2[nH]c(O[C@H]3CCOC3)cc2nc1-c1ccc(-c2ccc(OC3CCNC3)cc2)cc1 (stereo partly drawn) [Compound I-2-21]	13 nM	249%
O[C@@H]1CO[C@H]2[C@@H]1OC[C@H]2Oc1cc2nc(-c3ccc(-c4ccc(CN5CCOCC5)cc4)cc3)c(F)cc2[nH]1 [Compound I-2-22]	5.9 nM	348%
CS(C)(=O)=Nc1ccc(-c2ccc(-c3nc4cc(O[C@@H]5CO[C@H](CO)[C@H]5O)[nH]c4cc3F)cc2)cc1 [Compound I-2-23]	28 nM	224%
COc1ccc(-c2ccc(-c3nc4cc(O[C@@H]5CO[C@H]6[C@@H]5OC[C@H]6O)[nH]c4cc3F)cc2)cc1 [Compound I-2-24]	11 nM	364%
CN(C)S(=N)(=O)c1ccc(-c2ccc(-c3nc4cc(O[C@@H]5CO[C@H](CO)C5)[nH]c4cc3F)cc2)cc1 (stereo partly drawn) [Compound I-2-25]	1.9 nM	426%
CO[C@H]1[C@@H](CO)OC[C@H]1Oc1cc2nc(-c3ccc(-c4ccc(N=S(C)(C)=O)cc4)cc3)c(F)cc2[nH]1 [Compound I-2-26]	8.6 nM	298%
O[C@@H]1CO[C@H]2[C@@H]1OC[C@H]2Oc1cc2nc(-c3ccc(-c4ccc(OC5CNOC5)cc4)cc3)c(F)cc2[nH]1 (stereo partly drawn) [Compound I-2-27]	3.7 nM	375%
O[C@@H]1CO[C@H]2[C@@H]1OC[C@H]2Oc1cc2nc(-c3ccc(-c4ccc(OC5CNC[C@H]5F)cc4)cc3)c(F)cc2[nH]1 (stereo partly drawn) [Compound I-2-28]	4.4 nM	398%
COCCCc1ccc(-c2ccc(-c3nc4cc(O[C@@H]5CO[C@H]6[C@@H]5OC[C@H]6O)[nH]c4cc3F)cc2)cc1 [Compound I-2-29]	48 nM	367%
OCCCc1ccc(-c2ccc(-c3nc4cc(O[C@@H]5CO[C@H]6[C@@H]5OC[C@H]6O)[nH]c4cc3F)cc2)cc1 [Compound I-2-30]	4.3 nM	605%
O[C@@H]1CO[C@H]2[C@@H]1OC[C@H]2Oc1cc2nc(-c3ccc(-c4ccc(OCC5CCCO5)cc4)cc3)c(F)cc2[nH]1 (stereo partly drawn) [Compound I-2-33]	20 nM	362%
COCCOC1CCN(c2ccc(-c3nc4cc(O[C@@H]5CO[C@H]6[C@@H]5OC[C@H]6O)[nH]c4cc3F)cc2)CC1 [Compound I-2-34]	20 nM	425%
O[C@@H]1CO[C@H]2[C@@H]1OC[C@H]2Oc1cc2nc(-c3ccc(-c4ccc(Oc5cccnc5)cc4)cc3)c(F)cc2[nH]1 [Compound I-2-36]	43 nM	385%
COCCN(C(C)=O)c1ccc(-c2ccc(-c3nc4cc(O[C@@H]5CO[C@H]6[C@@H]5OC[C@H]6O)[nH]c4cc3F)cc2)cc1 [Compound I-2-37]	4.5 nM	415%
